Measurements: patent publication US20120059056A1, “CARBONATE DERIVATIVES AS SKIN CARE” (EASTMAN CHEMICAL COMPANY, priority 2010, published 2012)
Blank lines part the entries; values can stand above or below the compound they belong to.

Key:
[1] = Similar reaction run in the absence of enzyme (toluene / pH 7 buffer); assay type: physicochemical; conditions: for hydrolysis in the absence of enzyme: after 3 days; for hydrolysis in the absence of the enzyme: toluene / aqueous pH 7 buffer, time not stated
Method: Resveratrol tris(methyl carbonate) (100 mg; 0.249 mmol) was dissolved in 2 mL of toluene. […]
Hydroxytyrosol tris(methyl carbonate) (3, R=Me, 100 mg; 0.305 mmol) was dissolved in 2 mL of toluene. […]

Solubility in solvents = assay type: physicochemical
[2] = molecular target: Novozym 435 (immobilized Candida Antarctica lipase B) (Moesziomyces antarcticus, UniProt P41365); experiment: Enzymatic hydrolysis with Novozym 435 in toluene / pH 7 buffer, HPLC analysis; conditions: for enzymatic hydrolysis: lipase, biphasic mixture of toluene and aqueous pH 7 buffer, time not stated
Method: Resveratrol tris(methyl carbonate) (100 mg; 0.249 mmol) was dissolved in 2 mL of toluene. 2 mL of pH 7 buffer was added followed by 100 mg of Novozym 435 (immobilized Candida Antarctica lipase B).
2 mL of pH 7 buffer was added followed by 100 mg of Novozym 435 (immobilized Candida Antarctica lipase B).
Resveratrol tripalmitate (100 mg; 0.11 mmol) was dissolved in 2 mL of toluene. 2 mL of pH 7 buffer was added followed by 100 mg of Novozym 435 (immobilized Candida Antarctica lipase B).
1 mL of pH 7 buffer was added followed by 100 mg of Novozym 435 (immobilized Candida Antarctica lipase B).
Hydroxytyrosol tris(methyl carbonate) (3, R=Me, 100 mg; 0.305 mmol) was dissolved in 2 mL of toluene. 2 mL of pH 7 buffer was added followed by 100 mg of Novozym 435 (immobilized Candida Antarctica lipase B).
Hydroxytyrosol trihexanoate containing 1.9% hydroxytyrosol by HPLC analysis (100 mg; 0.22 mmol) was dissolved in 2 mL of toluene. 2 mL of pH 7 buffer was added followed by 100 mg of Novozym 435 (immobilized Candida Antarctica lipase B).

[3] = 48 h, ambient temperature (trihexanoate contained 1.9% hydroxytyrosol at start)
[4] = 24 h, ambient temperature, equal volumes of both layers
[5] = 3 days, ambient temperature, toluene/pH 7 buffer
[6] = 1 day, ambient temperature, top layer only
[7] = 22 h, ambient temperature, toluene/pH 7 buffer, equal volumes of both layers

Chain of Novozym 435 (immobilized Candida Antarctica lipase B) (P41365 26-342): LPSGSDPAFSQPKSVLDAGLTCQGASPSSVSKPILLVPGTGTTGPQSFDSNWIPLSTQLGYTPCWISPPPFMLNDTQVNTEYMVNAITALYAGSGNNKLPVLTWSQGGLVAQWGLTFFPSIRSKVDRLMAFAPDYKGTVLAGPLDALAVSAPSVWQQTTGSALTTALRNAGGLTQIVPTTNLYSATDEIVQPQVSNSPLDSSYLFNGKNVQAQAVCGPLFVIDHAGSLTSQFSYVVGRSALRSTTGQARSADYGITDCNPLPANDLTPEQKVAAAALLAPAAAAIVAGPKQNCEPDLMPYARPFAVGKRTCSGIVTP

hydrolysis in the absence of enzyme ([1]; toluene/pH 7 buffer): no detectable hydrolysis
Compound: 4-Hydroxybenzyl Alcohol bis(butyl carbonate)

hydrolysis in the absence of enzyme ([1]; toluene/pH 7 buffer): no detectable hydrolysis | hydrolysis in the absence of the enzyme [1]: no observed hydrolysis | resveratrol bis(methyl carbonate) by HPLC analysis [2, 7]: 15.8% | resveratrol by HPLC analysis [2, 7]: 23.75% | resveratrol mono(methyl carbonate) by HPLC analysis [2, 7]: 52.9% | resveratrol tris(methyl carbonate) remaining by HPLC analysis [2, 7]: 7.0% | resveratrol bis/di(alkyl carbonate) or dipalmitate by HPLC analysis [2, 5]: 0.6% | resveratrol by HPLC analysis [2, 5]: 63.8% | resveratrol mono(alkyl carbonate) by HPLC analysis [2, 5]: 35.1% | unchanged starting tris(alkyl carbonate) or tripalmitate by HPLC analysis [2, 5]: no detectable
Compound: COC(=O)Oc1ccc(/C=C/c2cc(OC(=O)OC)cc(OC(=O)OC)c2)cc1 [Resveratrol tris(methyl carbonate)]
enzymatic hydrolysis [2]: undergo hydrolysis of the carbonate to afford dicarbonates, monocarbonates, and the parent triphenol

Further lines, the compound ahead of its results:

Compound: OCc1ccc(O)cc1 [4-hydroxybenzyl alcohol, 4-Hydroxybenzyl alcohol]
solubility in toluene and water (Solubility in solvents): insolubility in both toluene and water

Compound: CCCCCC(=O)OCCc1ccc(OC(=O)CCCCC)c(OC(=O)CCCCC)c1 [Hydroxytyrosol trihexanoate, Hydroxytyrosol Trihexanoate, reference compound]
3,4-di(hexanoyl)phenylethanol by HPLC analysis ([2]; 48 h, ambient temperature): 18.7% | unchanged starting tris(methyl carbonate) or trihexanoate by HPLC analysis ([2]; 48 h, ambient temperature): 72.3% | hydroxytyrosol by HPLC analysis [2, 3]: 2.5%

Compound: COC(=O)OCCc1ccc(OC(=O)OC)c(OC(=O)OC)c1 [Hydroxytyrosol tris(methyl carbonate)]
hydrolysis to hydroxytyrosol in the absence of enzyme ([1]; after 2 days, toluene/pH 7 buffer): no detectable hydrolysis to hydroxytyrosol | hydroxytyrosol by HPLC analysis [2, 4]: 74% | mono- and di-carbonates by HPLC analysis [2, 4]: 1.5% | unchanged hydroxytyrosol tris(methyl carbonate) by HPLC analysis [2, 4]: 17% | mono- and di-carbonates by HPLC analysis ([2]; 48 h, ambient temperature): 5% | unchanged starting tris(methyl carbonate) or trihexanoate by HPLC analysis ([2]; 48 h, ambient temperature): 3% | hydroxytyrosol by HPLC analysis [2, 3]: 92%

Compound: CCCCCCCCCCCCCCCC(=O)Oc1ccc(C=Cc2cc(OC(=O)CCCCCCCCCCCCCCC)cc(OC(=O)CCCCCCCCCCCCCCC)c2)cc1 [Resveratrol tripalmitate, Resveratrol Tripalmitate, reference compound]
extent of enzymatic hydrolysis [2, 5]: minimal hydrolysis | unchanged starting tris(alkyl carbonate) or tripalmitate by HPLC analysis [2, 5]: 89% | enzymatic hydrolysis [2]: minimal hydrolysis

Compound: CCCCOC(=O)Oc1ccc(/C=C/c2cc(OC(=O)OCCCC)cc(OC(=O)OCCCC)c2)cc1 [Resveratrol tris(butyl carbonate)]
hydrolysis in the absence of the enzyme [1]: no observed hydrolysis | resveratrol bis(butyl carbonate) by HPLC analysis [2, 6]: 41% | resveratrol tris(butyl carbonate) remaining by HPLC analysis [2, 6]: 59% | resveratrol bis/di(alkyl carbonate) or dipalmitate by HPLC analysis [2, 5]: 41% | resveratrol by HPLC analysis [2, 5]: 35% | resveratrol mono(alkyl carbonate) by HPLC analysis [2, 5]: 5% | unchanged starting tris(alkyl carbonate) or tripalmitate by HPLC analysis [2, 5]: 19% | enzymatic hydrolysis [2]: undergo hydrolysis of the carbonate to afford dicarbonates, monocarbonates, and the parent triphenol
